Earlier results as cited in patent US20250325473A1, “COLLAGEN-IMPREGNATED DEVICES AND METHODS FOR TREATMENT OF CANCER” (COLLAGEN MATRIX, INC., priority 2022, published 2025).
Square brackets hold non-standard residues; d marks the D form. Ends that are not written are not given here. Hyp = O=C(O)[C@@H]1C[C@@H](O)CN1

Columns and labels:
Set-up in all cases: key: A plus sign (+) indicates a response similar in peptides II-22, III-23, or GPS-GFO (control); a minus sign (−) Indicates less than 20% of control; +/−: +/ − indicates 20-80% of control
His-DDR2 or DS2-Fc = details: binding to His-DDR2 or DS2-Fc, response relative to control peptides II-22, III-23 or GPS-GFO; guest sequences flanked by (GPP)
DDR1-Fc or DDR1-Fc2 = details: binding to DDR1-Fc or DDR1-Fc2, response relative to control peptides II-22, III-23 or GPS-GFO; guest sequences flanked by (GPP)
DDR2-Fc or DDR2-Fc2 = details: binding to DDR2-Fc or DDR2-Fc2, response relative to control peptides II-22, III-23 or GPS-GFO; includes data from Konitsiotis et al. 2008
Sequence of DDR2-Fc or DDR2-Fc2 (Q16832 30-185 limits assumed): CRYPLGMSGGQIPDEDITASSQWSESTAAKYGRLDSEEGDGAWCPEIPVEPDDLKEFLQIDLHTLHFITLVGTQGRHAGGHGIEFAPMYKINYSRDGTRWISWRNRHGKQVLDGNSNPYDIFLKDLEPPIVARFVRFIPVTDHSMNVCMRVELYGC

Sequence of DDR1-Fc or DDR1-Fc2 (Q08345 31-185 limits assumed): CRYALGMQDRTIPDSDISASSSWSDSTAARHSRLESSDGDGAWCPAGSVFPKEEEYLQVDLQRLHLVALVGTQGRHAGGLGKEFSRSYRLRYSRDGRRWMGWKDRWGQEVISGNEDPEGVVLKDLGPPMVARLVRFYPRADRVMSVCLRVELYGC
Sequence of His-DDR2 or DS2-Fc (Q16832 30-185 limits assumed): as the sequence (Q16832 30-185 limits assumed) above

Substance | DDR2 binding (His-DDR2 or DS2-Fc) | DDR1 binding (DDR1-Fc or DDR1-Fc2) | DDR2 binding (DDR2-Fc or DDR2-Fc2)
(GAP) -GPRGQOGVMGFO-(GAP) (GAPGAPGAPGAPGAPGPRGQ[Hyp]GVMGF[Hyp]GAPGAPGAPGAPGAP; not fully specified) [GAP-GPR-GFO, non-helical peptide flanked by (GAP) instead of (GPP)] | +/− (+/ − indicates 20-80% of control) | − (a minus sign (−) indicates less than 10% of control) | − (a minus sign (−) indicates less than 10% of control)
GAKGSAGAOGIAGAOGFOGPRGPOGPQ (GAKGSAGA[Hyp]GIAGA[Hyp]GF[Hyp]GPRGP[Hyp]GPQ; not fully specified) [II- ? 3, label partly illegible] |  | − (a minus sign (−) indicates less than 10% of control) | +
GAOGEDGROGPOGPQGARGQOGVMGFO (GA[Hyp]GEDGR[Hyp]GP[Hyp]GPQGARGQ[Hyp]GVMGF[Hyp]; not fully specified) [II-22] | + | + | +
GAOGPLGIAGITGARGLAGPOGMOGPR (GA[Hyp]GPLGIAGITGARGLAGP[Hyp]GM[Hyp]GPR; not fully specified) [III-44] |  | − (a minus sign (−) indicates less than 10% of control) | +
GARGAQGPOGATGFOGAAGRVGPOGSN (GARGAQGP[Hyp]GATGF[Hyp]GAAGRVGP[Hyp]GSN; not fully specified) [II- ? 9, label partly illegible] |  | +/− ((+/− indicates 30-80% of control) | +/− ((+/− indicates 30-80% of control)
GARGEOGNIGFO (GARGE[Hyp]GNIGF[Hyp]; not fully specified) [CI-alpha2] | − (a minus sign (−) Indicates less than 20% of control) | +/− ((+/− indicates 30-80% of control) | (+)/− ((+)/− indicates 20-30% of control)
GARGFOGTOGLOGVKGRRGYOGLDGAK [II-5] |  | − (a minus sign (−) indicates less than 10% of control) | +/− ((+/− indicates 30-80% of control)
GARGQAGVMGFO (GARGQAGVMGF[Hyp]; not fully specified) [CI-alpha1] | + | + | +
GARGQOGVMGFO (GARGQ[Hyp]GVMGF[Hyp]; not fully specified) [GAR-GFO] |  | + | 
GASGDRGPOGPVGPOGLTGPAGEOGRE [II-46] |  | +/− ((+/− indicates 30-80% of control) | − (a minus sign (−) indicates less than 10% of control)
GERGLOGPOGIKGPAGIDGFOGMKGHR [III-5] |  | − (a minus sign (−) indicates less than 10% of control) | +
GFOGER [GPOGER] | − (a minus sign (−) Indicates less than 20% of control) | − (a minus sign (−) indicates less than 10% of control) | − (a minus sign (−) indicates less than 10% of control)
GFOGPK (GF[Hyp]GPK; not fully specified) | − (a minus sign (−) Indicates less than 20% of control) | − (a minus sign (−) indicates less than 10% of control) | − (a minus sign (−) indicates less than 10% of control)
GLAGRQGIVGLDGQRGERGFOGLOGPS [II-44] |  | − (a minus sign (−) indicates less than 10% of control) | +
GPOGPQGVKGERGSDGGDGAAGFOGAR [III- ? 9] |  | − (a minus sign (−) indicates less than 10% of control) | +
GPOGPSGPRGQOGVMGFOGPKGNDGAO (GP[Hyp]GPSGPRGQ[Hyp]GVMGF[Hyp]GPKGNDGA[Hyp]; not fully specified) [III-23] | + | + | +

Substance | DDR2 binding (His-DDR2 or DS2-Fc) | DDR1 binding (DDR1-Fc or DDR1-Fc2) | DDR2 binding (DDR2-Fc or DDR2-Fc2)
GPRGQOGVMGFO [GPR-GFO] | + | + | +
GPRGQOGVMGFOGPK (GPRGQ[Hyp]GVMGF[Hyp]GPK; not fully specified) [GPR-GPK] | − (a minus sign (−) Indicates less than 20% of control) | (+)/− ((+)/− indicates 20-30% of control) | +
GPSGARGQOGVMGFO (GPSGARGQ[Hyp]GVMGF[Hyp]; not fully specified) [GPS-GFO-5A] | − (a minus sign (−) Indicates less than 20% of control) | + | +
GPSGPAGQOGVMGFO (GPSGPAGQ[Hyp]GVMGF[Hyp]; not fully specified) [GPS-GFO-6A] | + | +/− ((+/− indicates 30-80% of control) | +/− ((+/− indicates 30-80% of control)
GPSGPRGAOGVMGFO (GPSGPRGA[Hyp]GVMGF[Hyp]; not fully specified) [GPS-GFO-8A] | +/− (+/ − indicates 20-80% of control) | + | +
GPSGPRGQAGVMGFO (GPSGPRGQAGVMGF[Hyp]; not fully specified) [GPS-GFO-9A] | + | + | +
GPSGPRGQO (GPSGPRGQ[Hyp]; not fully specified) [GPS-GQO] | − (a minus sign (−) Indicates less than 20% of control) | − (a minus sign (−) indicates less than 10% of control) | − (a minus sign (−) indicates less than 10% of control)
GPSGPRGQOGAMGFO (GPSGPRGQ[Hyp]GAMGF[Hyp]; not fully specified) [GPS-GFO-11A] | + | + | +
GPSGPRGQOGVAGFO (GPSGPRGQ[Hyp]GVAGF[Hyp]; not fully specified) [GPS-GFO-12A] | + | − (a minus sign (−) indicates less than 10% of control) | (+)/− ((+)/− indicates 20-30% of control)
GPSGPRGQOGVM (GPSGPRGQ[Hyp]GVM; not fully specified) [GPS-GVN] | − (a minus sign (−) Indicates less than 20% of control) | − (a minus sign (−) indicates less than 10% of control) | − (a minus sign (−) indicates less than 10% of control)
GPSGPRGQOGVMGAO (GPSGPRGQ[Hyp]GVMGA[Hyp]; not fully specified) [GPS-GFO-14A] | − (a minus sign (−) Indicates less than 20% of control) | − (a minus sign (−) indicates less than 10% of control) | − (a minus sign (−) indicates less than 10% of control)
GPSGPRGQOGVMGFA (GPSGPRGQ[Hyp]GVMGFA; not fully specified) [GPS-CFO-15A] | +/− (+/ − indicates 20-80% of control) | (+)/− ((+)/− indicates 20-30% of control) | +/− ((+/− indicates 30-80% of control)
GPSGPRGQOGVMGFO [GPS-GFO] | + | + | +
GQOGVMGFO (GQ[Hyp]GVMGF[Hyp]; not fully specified) [GQO-GFO] | + | +/− ((+/− indicates 30-80% of control) | +/− ((+/− indicates 30-80% of control)
GQOGVMGFOGPKGANGEOGKAGEKGLO (GQ[Hyp]GVMGF[Hyp]GPKGANGE[Hyp]GKAGEKGL[Hyp]; not fully specified) [II-23] | + | − (a minus sign (−) indicates less than 10% of control) | +
GVMGFO (GVMGF[Hyp]; not fully specified) | +/− (+/ − indicates 20-80% of control) | +/− ((+/− indicates 30-80% of control) | +/− ((+/− indicates 30-80% of control)
